Test results from article PMC7311950, “Potent Tetrahydroquinolone Eliminates Apicomplexan Parasites” (Frontiers in Cellular and Infection Microbiology, 2020).
Entries after “also recorded” stand apart in the source; their conditions may differ.

What was measured:
[1] = PPB (human); assay type: in vitro ADME; conditions: plasma
[2] = Caco-2 permeability assay; assay type: in vitro ADME; conditions: human, A-B, read-out: Caco-2 permeability PappA-B
[3] = tested on: T. gondii (Prugneaud strain expressing luciferase) tachyzoites; test: Type II Prugneaud luciferase tachyzoite infection of Balb/C mice, IVIS and brain cysts; assay type: in vivo, Toxoplasma gondii
Method: Balb/C mice were infected intraperitoneally (IP) with 20 × 10^3 T. gondii (Prugneaud strain expressing luciferase) tachyzoites. Treatment began 2 h later with JAG21 (5 mg/kg) which was dissolved in DMSO, administered IP in a total volume of 0.05 mL. Mice were imaged every second day starting on day 4 post infection using an IVIS Spectrum (Caliper Life Sciences) for […], with medium binning, 20 min post injection with 150 mg/kg of D-luciferin potassium salt solution.
Brain cysts were searched for in paraffin imbedded tissue of the surviving Prugneaud strain infected treated Balb/C mice in the IVIS study, 30 days after infection which was 16 days after treatment had been discontinued. All treated mice had survived. There were no surviving untreated mice in those experiments.

[4] = target: CYP450 2C9 (Homo sapiens, UniProt P11712); test: CYP450 inhibition, 2C9; assay type: in vitro ADME
CYP450 2C9, sequence (P11712 whole entry): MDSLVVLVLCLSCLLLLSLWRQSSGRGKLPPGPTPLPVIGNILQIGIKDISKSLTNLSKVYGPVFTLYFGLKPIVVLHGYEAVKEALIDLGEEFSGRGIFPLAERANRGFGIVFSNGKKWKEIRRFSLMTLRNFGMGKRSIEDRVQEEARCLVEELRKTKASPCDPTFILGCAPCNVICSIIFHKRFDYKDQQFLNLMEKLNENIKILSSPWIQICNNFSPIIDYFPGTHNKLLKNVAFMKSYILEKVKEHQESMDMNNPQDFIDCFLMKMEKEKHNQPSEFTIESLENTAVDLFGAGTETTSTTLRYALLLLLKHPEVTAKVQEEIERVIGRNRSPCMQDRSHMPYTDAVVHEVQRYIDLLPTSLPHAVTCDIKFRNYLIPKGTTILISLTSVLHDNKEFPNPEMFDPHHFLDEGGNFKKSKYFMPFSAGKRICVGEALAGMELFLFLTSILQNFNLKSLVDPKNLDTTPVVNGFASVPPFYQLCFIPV

[5] = tested on: Human Foreskin Fibroblast (HFF); test: Cytotoxicity assay, WST-1 cell proliferation reagent on HFF; assay type: cell-based; conditions: Homo sapiens, Fibroblast; supplement summary
Method: Toxicity assays used WST-1 cell proliferation reagent (Roche) as in Fomovska et al. ([2012a]). HFF were grown on a flat, clear-bottomed, black 96-well plate. Confluent HFF were treated with inhibitory compounds at concentrations of 10 and 50 μM. Compounds were diluted in IMDM-C, and 20 μL were added to each designated well, with triplicates for each condition. A gradient with 2-folddecreasing concentrations of DMSO from 10 to 0% in colorless, translucent IMDM-C was used as a control. The plate was incubated for 72 h at 37°C. Ten microlitre WST-1 reagent (Roche) were added to each well. Cells were incubated for 30–60 min. Absorbance was read using a fluorimeter at 420 nm. A higher degree of color change (and absorbance) indicated mitochondrial activity and cell viability.

[6] = tested on: T. gondii RPS13Δ; test: RPS13Δ infection of interferon γ receptor knockout mice; assay type: in vivo, Toxoplasma gondii; conditions: mice to start 5 (Tafenoquine), 5 (JAG21)
Method: In pilot studies, herein, interferon γ receptor knockout mice that were not treated were observed following infection. At 7 and at 14 days following infection, spleen, and liver were removed and immune peroxidase stained. At 14 days a group of mice were treated with anhydrotetracycline and when a subset of these mice died, their spleen and liver were removed and immune peroxidase stained.
As in the pilot studies, this RPS13 Δ parasite also was used to infect interferon γ receptor knockout mice in a treatment study. In this separate study, groups of mice were infected with RPS13 Δ. They were treated with tafenoquine on day−1, or JAG21 for 14 days 2 h after infection, or the two together with tafenoquine on day−1 and JAG21 for the first 14 days, or with diluent only for 14 days, as described above. For the initial 14 days, no tetracycline was administered. After that time tetracycline was administered. Mice were observed each day. At the time they appeared to have substantial illness or at the termination of the experiment they were euthanized, tissues fixed in formalin and stained with hematoxylin and eosin or immunoperoxidase stained and parasite burden was assessed.

[7] = target: hERG (Homo sapiens, UniProt Q12809); test: hERG liability; assay type: biochemical
hERG, sequence (Q12809 whole entry): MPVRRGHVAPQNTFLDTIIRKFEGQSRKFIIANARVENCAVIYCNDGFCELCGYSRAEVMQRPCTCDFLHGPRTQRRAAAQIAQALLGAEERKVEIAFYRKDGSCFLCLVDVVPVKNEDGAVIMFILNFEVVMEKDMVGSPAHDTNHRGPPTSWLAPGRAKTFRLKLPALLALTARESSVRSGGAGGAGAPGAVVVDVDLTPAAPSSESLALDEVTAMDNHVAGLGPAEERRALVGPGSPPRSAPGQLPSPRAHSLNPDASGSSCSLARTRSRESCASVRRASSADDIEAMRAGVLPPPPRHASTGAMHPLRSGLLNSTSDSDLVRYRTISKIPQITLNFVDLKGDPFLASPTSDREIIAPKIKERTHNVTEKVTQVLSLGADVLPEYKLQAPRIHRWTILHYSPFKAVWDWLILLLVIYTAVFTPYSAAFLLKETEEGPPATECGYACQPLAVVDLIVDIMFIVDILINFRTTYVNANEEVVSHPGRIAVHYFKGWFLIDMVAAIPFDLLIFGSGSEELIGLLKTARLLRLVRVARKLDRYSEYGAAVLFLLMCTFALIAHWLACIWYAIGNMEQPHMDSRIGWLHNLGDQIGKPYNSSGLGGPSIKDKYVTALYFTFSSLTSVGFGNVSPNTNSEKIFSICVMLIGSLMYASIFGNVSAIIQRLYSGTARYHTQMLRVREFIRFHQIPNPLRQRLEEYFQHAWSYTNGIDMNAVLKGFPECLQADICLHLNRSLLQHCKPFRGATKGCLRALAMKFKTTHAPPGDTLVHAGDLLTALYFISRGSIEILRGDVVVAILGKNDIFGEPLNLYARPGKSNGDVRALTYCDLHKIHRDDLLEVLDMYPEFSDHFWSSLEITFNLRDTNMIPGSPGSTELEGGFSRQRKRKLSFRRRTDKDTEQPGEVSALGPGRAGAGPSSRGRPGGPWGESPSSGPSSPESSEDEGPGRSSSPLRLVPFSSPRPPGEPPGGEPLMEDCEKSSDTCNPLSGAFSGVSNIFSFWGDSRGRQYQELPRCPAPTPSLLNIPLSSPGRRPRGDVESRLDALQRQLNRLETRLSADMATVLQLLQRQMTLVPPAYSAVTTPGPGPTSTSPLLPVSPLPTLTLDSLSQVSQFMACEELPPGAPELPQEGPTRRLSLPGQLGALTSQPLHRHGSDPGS

[8] = tested on: T. gondii Me49 strain; test: Established chronic Me49 infection of Balb/C mice, brain cysts; assay type: in vivo, Toxoplasma gondii; conditions: treatment begun day 30 after infection, IP daily for 14 days
Method: In separate experiments, Balb/C mice were infected IP with 20 × 10^3 T. gondii Me49 strain tachyzoites. In these separate studies of mice with established chronic infection, after 30 days, IP treatment with JAG21 was begun each day for 14 days. JAG21 was dissolved in DMSO and administered IP in a total volume of 0.05 mL. In experiments when tafenoquine was administered alone or with JAG21 in some groups 3 mg/kg tafenoquine was administered once on day−1 from when JAG21 treatment was initiated. Cysts in brain were quantitated on day […], 16 days after discontinuing JAG21. Immunoperoxidase staining was performed. Parasite burden was quantitated in two ways. The first was using a positive pixel count algorithm of Aperio ImageScope software. Positive pixels were normalized to tissue area (mm^2). Briefly, automated quantitation was done by counting positive pixels per square area. The entire brain in one section was scanned for each mouse. The Cyst burden was quantitated as units of positive pixels per mm^2. The average ± S.E.M. numbers of mm^2 per slide quantitated was 30.2±1.6 square mm per mouse for this quantification. Each highpower field of view shown in Figure 5C is ~0.02 mm^2 per field of view. Cysts on each slide for each condition in two biological replicate experiments were also quantitated by 2 separate observers independently and results compared with automated counting, separately.

In the case of `Cc1[nH]c2c(c(=O)c1-c1ccc(Oc3ccc(OC(F)(F)F)cc3)cc1)CCCC2` [JAG21, 2-Methyl-3-(4-(4-(Trifluoromethoxy)Phenoxy)Phenyl)-5,6,7,8-Tetrahydroquinolin-4-One], the fraction unbound [1] is reported as 0.001, the Papp [2] is reported as > 10 ×10⁻⁶ cm/s and the “luciferase expressing parasites by IVIS” value ([3]; 5 mg/kg/day IP) is reported as “eliminates leuciferase expressing parasites”. The “survival of infected mice” value ([3]; 5 mg/kg/day IP for 14 days) was 100%, the cysts in brains ([3]; treated first 14 days with 5 mg/kg/day IP, 5 mg/kg/day) was “No cysts were found” and the IC50 [4] was 4 µM. For the same molecule, the IC50 [5] was > 7.5 µM, the “number of mice left at 42” value ([6]; Experiment 1, 6 (Tafenoquine+JAG21)) was 2 and the “number of mice left at 37” value ([6]; Experiment 2, 9 (Tafenoquine+JAG21)) was 3. The IC50 [7] was 22 µM and the Me49 brain cysts [8] was “marked, statistically significant reduction; also recorded: markedly reduce”.
